Experimental data as given in ChEMBL document CHEMBL3351914, “Finding the perfect spot for fluorine: improving potency up to 40-fold during a rational fluorine scan of a Bruton's Tyrosine Kinase (BTK) inhibitor scaffold” (Bioorg Med Chem Lett, 2015).

What follows are compounds tested against Tyrosine-protein kinase BTK (Homo sapiens, UniProt Q06187) (assay: Inhibition of BTK in human whole blood assessed as decrease in CD69 positive cells).
Tyrosine-protein kinase BTK, sequence (Q06187 whole entry): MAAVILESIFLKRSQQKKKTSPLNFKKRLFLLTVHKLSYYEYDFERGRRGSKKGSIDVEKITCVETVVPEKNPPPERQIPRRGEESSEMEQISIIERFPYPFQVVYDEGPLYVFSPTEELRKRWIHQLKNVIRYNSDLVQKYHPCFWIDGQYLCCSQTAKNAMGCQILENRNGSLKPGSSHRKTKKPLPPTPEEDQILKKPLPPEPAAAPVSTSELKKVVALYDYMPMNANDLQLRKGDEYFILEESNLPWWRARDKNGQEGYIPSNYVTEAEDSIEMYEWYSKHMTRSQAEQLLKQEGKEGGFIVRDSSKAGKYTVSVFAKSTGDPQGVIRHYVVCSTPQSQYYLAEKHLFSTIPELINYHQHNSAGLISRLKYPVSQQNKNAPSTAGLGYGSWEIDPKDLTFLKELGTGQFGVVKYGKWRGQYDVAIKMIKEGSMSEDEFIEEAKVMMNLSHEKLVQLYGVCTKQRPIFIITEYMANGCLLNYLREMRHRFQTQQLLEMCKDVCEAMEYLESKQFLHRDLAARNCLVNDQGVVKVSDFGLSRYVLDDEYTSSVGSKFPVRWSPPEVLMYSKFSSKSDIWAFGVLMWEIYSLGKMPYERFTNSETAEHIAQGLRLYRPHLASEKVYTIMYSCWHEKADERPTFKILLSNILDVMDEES
Assay type: cell-based
In the case of `CCNC(=O)Nc1cc(-c2cccc(N3CCc4cc(N(C)C)ccc4C3=O)c2CO)cn(C)c1=O`, the IC50 is reported as 1600 nM.
Compound `CNC(=O)Nc1cc(-c2ccc(F)c(N3CCc4cc(N(C)C)ccc4C3=O)c2CO)cn(C)c1=O` has an IC50 of 3700 nM.
`CN(C)c1ccc2c(c1)CCN(c1cccc(-c3cc(Nc4ccc(N5CCOCC5)cn4)c(=O)n(C)c3)c1CO)C2=O` gave an IC50 of 190 nM.
`CN(C)c1ccc2c(c1)CCN(c1cc(F)cc(-c3cc(Nc4ccc(N5CCOCC5)cn4)c(=O)n(C)c3)c1CO)C2=O` gave an IC50 of 200 nM.
`CN(C)c1ccc2c(=O)n(-c3cccc(-c4cc(Nc5ccc(C(=O)N6CCOCC6)cn5)c(=O)n(C)c4)c3CO)ccc2c1` was tested, and the IC50 was 280 nM.
In the case of `CN1CCN(c2ccc(Nc3cc(-c4cccc(N5CCc6cc(C(C)(C)C#N)ccc6C5=O)c4CO)cn(C)c3=O)nc2)CC1`, the IC50 is reported as 60 nM.
